Experiment in all cases: Cysteine liganding, probe competition
Holding throughout (type): binding

Test [1] concerns the target T1, UniProt Q6ZN04 (Homo sapiens, UniProt Q6ZN04).
T1 construct: Cells were resuspended in cold PBS on ice and sonicated with a probe sonicator to achieve lysis; endogenous in cells
T1 sequence (Q6ZN04 1-569): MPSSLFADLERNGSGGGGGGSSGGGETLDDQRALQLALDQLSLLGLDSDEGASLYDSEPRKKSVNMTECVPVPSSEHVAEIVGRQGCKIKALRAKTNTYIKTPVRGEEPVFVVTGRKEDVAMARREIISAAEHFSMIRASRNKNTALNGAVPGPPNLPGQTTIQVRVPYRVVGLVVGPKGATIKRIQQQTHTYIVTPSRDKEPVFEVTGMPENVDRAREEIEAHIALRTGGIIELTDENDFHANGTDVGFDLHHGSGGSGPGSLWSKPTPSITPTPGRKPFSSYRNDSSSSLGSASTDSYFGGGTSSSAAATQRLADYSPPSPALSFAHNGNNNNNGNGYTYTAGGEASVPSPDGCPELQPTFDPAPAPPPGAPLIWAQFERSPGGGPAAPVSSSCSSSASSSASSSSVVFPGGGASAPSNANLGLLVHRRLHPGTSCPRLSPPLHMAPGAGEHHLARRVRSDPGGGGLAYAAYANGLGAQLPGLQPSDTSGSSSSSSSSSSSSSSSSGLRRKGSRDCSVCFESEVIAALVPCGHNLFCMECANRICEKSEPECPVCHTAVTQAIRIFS
To be noted: for inhibition at 500 µM: read-out: percent inhibition. From the text: (§1) The following 96-well sample prep protocol was used for sample preparation.

Test [2] deals with T2, UniProt Q9C035 (Homo sapiens, UniProt Q9C035).
T2 construct: 200 μL of lysate containing 5 mg/ml proteome was treated with 2 μL of 100× compound stock; endogenous in cells
T2 sequence (Q9C035 whole entry, change not shown): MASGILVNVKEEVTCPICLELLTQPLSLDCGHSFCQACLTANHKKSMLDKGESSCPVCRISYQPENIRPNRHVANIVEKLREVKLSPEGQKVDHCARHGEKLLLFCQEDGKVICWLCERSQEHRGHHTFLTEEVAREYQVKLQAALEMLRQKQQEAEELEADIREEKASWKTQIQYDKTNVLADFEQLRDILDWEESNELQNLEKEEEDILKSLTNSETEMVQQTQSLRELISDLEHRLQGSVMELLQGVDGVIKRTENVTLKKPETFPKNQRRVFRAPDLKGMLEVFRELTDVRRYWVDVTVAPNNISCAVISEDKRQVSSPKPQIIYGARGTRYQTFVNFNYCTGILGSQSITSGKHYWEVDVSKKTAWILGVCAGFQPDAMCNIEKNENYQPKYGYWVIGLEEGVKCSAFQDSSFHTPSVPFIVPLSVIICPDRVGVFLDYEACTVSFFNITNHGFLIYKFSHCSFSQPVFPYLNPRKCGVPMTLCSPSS
Excerpt: as §1

Test [3] concerns the target T3, UniProt O14508 (Homo sapiens, UniProt O14508).
T3 construct: 200 μL of lysate containing 5 mg/ml proteome was treated with 2 μL of 100× compound stock; endogenous in cells
T3 sequence (O14508 1-198): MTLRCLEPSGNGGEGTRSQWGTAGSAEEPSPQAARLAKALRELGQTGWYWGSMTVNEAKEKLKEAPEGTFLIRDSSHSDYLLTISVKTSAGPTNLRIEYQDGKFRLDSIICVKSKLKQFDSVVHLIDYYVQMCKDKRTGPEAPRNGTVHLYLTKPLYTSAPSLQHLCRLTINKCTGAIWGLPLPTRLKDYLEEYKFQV
To be noted: for inhibition at 100 µM: read-out: percent_inhibition.
Excerpt: as §1

In test [4] the target is T4, UniProt A0AVI4 (Homo sapiens, UniProt A0AVI4).
T4 construct: 200 μL of lysate containing 5 mg/ml proteome was treated with 2 μL of 100× compound stock; endogenous in cells
T4 sequence (A0AVI4 1-362): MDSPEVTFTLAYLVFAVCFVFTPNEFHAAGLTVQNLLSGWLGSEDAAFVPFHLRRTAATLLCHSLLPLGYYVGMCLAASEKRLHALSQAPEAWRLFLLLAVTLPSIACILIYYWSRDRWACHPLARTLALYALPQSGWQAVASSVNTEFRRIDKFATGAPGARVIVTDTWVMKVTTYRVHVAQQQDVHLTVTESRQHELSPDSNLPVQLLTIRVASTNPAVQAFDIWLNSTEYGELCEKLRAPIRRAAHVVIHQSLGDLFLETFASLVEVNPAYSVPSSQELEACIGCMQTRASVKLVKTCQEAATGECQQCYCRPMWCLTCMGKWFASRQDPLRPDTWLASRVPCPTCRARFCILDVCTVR
Excerpt: as §1

Test [5] has as its target T5, UniProt Q13064 (Homo sapiens, UniProt Q13064).
T5 construct: Cells were resuspended in cold PBS on ice and sonicated with a probe sonicator to achieve lysis; endogenous in cells
T5 sequence (Q13064 1-507): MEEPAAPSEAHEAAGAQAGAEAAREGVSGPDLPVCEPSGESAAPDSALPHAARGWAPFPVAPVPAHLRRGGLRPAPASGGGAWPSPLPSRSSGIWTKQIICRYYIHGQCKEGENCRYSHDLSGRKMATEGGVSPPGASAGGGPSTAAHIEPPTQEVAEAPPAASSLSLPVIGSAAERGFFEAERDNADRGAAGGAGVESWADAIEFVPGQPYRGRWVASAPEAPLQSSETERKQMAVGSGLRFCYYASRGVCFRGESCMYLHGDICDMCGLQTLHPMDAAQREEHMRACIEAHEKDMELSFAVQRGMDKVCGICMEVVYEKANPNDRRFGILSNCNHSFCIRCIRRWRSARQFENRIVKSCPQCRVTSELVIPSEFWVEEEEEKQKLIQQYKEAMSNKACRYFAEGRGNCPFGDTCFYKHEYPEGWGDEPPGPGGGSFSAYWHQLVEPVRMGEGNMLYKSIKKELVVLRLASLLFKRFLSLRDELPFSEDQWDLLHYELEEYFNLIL
Excerpt: as §1

The target in test [6] is T6, UniProt Q9BUL5 (Homo sapiens, UniProt Q9BUL5).
T6 construct: 200 μL of lysate containing 5 mg/ml proteome was treated with 2 μL of 100× compound stock; endogenous in cells
T6 sequence (Q9BUL5 whole entry, change not shown): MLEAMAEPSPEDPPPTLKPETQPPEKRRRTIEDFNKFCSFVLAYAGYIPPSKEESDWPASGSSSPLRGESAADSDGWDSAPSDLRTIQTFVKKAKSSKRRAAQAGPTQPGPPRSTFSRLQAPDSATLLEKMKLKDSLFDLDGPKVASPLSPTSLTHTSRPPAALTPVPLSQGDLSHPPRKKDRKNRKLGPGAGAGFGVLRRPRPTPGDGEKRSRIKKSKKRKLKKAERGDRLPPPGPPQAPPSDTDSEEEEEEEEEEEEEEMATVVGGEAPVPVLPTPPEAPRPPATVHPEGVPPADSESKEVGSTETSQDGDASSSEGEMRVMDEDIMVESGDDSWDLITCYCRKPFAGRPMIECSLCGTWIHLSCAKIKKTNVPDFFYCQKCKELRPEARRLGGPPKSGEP
Excerpt: as §1

Test [7] has as its target T7, UniProt O15524 (Homo sapiens, UniProt O15524).
T7 construct: 200 μL of lysate containing 5 mg/ml proteome was treated with 2 μL of 100× compound stock; endogenous in cells
T7 sequence (O15524 1-211): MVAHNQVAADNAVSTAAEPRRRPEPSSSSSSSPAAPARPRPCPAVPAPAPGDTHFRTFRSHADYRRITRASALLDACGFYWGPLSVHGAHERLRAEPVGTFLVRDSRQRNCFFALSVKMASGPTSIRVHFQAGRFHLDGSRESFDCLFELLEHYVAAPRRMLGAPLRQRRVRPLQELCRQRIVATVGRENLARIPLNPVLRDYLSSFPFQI
To be noted: for inhibition at 500 µM: read-out: percent_inhibition.
Excerpt: as §1

In test [8] the target is T8, UniProt Q96G25 (Homo sapiens, UniProt Q96G25).
T8 construct: Cells were resuspended in cold PBS on ice and sonicated with a probe sonicator to achieve lysis; endogenous in cells
T8 sequence (Q96G25 1-268): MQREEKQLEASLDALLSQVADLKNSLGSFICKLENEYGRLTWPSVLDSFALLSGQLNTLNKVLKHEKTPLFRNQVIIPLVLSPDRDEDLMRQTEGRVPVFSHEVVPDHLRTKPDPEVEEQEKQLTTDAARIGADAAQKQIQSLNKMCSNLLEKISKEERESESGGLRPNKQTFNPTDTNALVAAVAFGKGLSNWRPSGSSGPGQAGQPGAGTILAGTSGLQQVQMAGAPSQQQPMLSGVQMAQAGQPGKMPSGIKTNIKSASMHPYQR
Excerpt: as §1

Where [9] appears, read: 100 uM, read-out: percent inhibition.
Setting [10] is: 500 uM, read-out: percent inhibition.

Like-named read-outs stand apart in the source and are kept apart here.

As for `O=C(CCl)Nc1cc(C(F)(F)F)cc(C(F)(F)F)c1` [KBO3], the percent inhibition in test [1] (500 uM) came out at 28%; in test [5] (500 uM) it was 16%; in test [8] (100 uM), 8%. In addition, the “KB03_100 uM_percent_inhibition” value in test [2] (100 uM) amounted to 18%; in test [6] (100 uM), 16%. Also, the figures for the percent_inhibition in test [3] (100 uM), in test [4] (500 uM) and in test [7] (500 uM) were 30%, 58% and 35%, respectively.

In the case of `COc1ccc2c(c1)CCCN2C(=O)CCl` [KB02], the inhibition at 500 µM in test [1] was found to be 51%; in test [4] (500 uM, read-out: percent_inhibition), 44%; in test [5] (setting [10]), 37%; in test [7], 38%. The inhibition at 100 µM was determined as 13% in test [2] (read-out: KB02_100 uM_percent_inhibition); 14% in test [3]; 14% in test [4] (read-out: percent_inhibition); 2% in test [5] (setting [9]); 13% in test [6] (100 uM, read-out: KB02_100 uM_percent_inhibition); 29% in test [8] (setting [9]). The compound further showed a percent inhibition in test [8] (100 uM) of 31%.

Take `C=CC(=O)N(c1ccccc1)c1ccc(Br)cc1` [KB05]: the inhibition at 500 µM in test [1] was 51%; in test [5] (setting [10]), 23%; in test [6] (500 uM, read-out: KB05_500 uM_percent_inhibition), 27%; in test [7], 56%; in test [8] (setting [10]) it was 31%. The inhibition at 100 µM in test [2] (read-out: KB05_100 uM_percent_inhibition) worked out at 4%; in test [3], 48%; in test [4] (read-out: percent_inhibition), 15%; in test [6] (100 uM, read-out: KB05_100 uM_percent_inhibition), 29%; in test [8] (setting [9]) it was 10%. Also, the “KB05_500 uM_percent_inhibition” value in test [6] (500 uM) is given as 30%. The percent inhibition in test [8] (500 uM) came to 40%.

(Values after patent US20200239530A1, “COMPOUNDS AND METHODS OF MODULATING PROTEIN DEGRADATION” (Vividion Therapeutics, Inc., priority 2017, published 2020).)
